Test results as given in patent US20220218806A1, “PEPTIDES AND CONJUGATES FOR TREATMENT OF ARTHRITIS” (CRL-SCI Corporation, priority 2019, published 2022).
Entries after “also recorded” stand apart in the source; their conditions may differ. Where two headings read alike, the source gives them in different places. Square brackets hold non-standard residues; d marks the D form. Ends that are not written are not given here. Cit = NC(=O)NCCC[C@H](N)C(=O)O

Key:
GIA model of RA [1] = test: Visual arthritis score (VAS) after therapeutic LEAPS vaccination in rhG1-induced arthritis; format: in vivo, BALB/c mice; conditions: overall conclusion
CD4+ spleen T cells = test: Intracellular cytokines and FoxP3 in spleen T cells by flow cytometry; format: cell-based, BALB/c mice
Description: (§1) Animals were euthanized on day 35 after the first control or LEAPS vaccination, and sera was collected. For histopathology, hind limbs (from 5 mice/treatment groups plus 3 normal mice limbs) were dissected and fixed in 10% buffered formalin. The specimens were embedded in paraffin and sectioned. Adjacent tissue sections were stained separately with TB and HE. Microscopic analysis and scoring of joint damage were carried out independently under code by Bolder BioPath. Serum anti-LEAPS peptide antibody levels were determined by ELISA using Neutavidin plates and Biotin labeled peptides for loading onto plates. To determine cytokine production by spleen cell cultures, after a 4-day stimulation of spleen cells with 7.5 μg/ml rhG1 (or no treatment as control), cytokines secreted into the culture media were assayed by MagPix as 9-plex or 6-plex kits from R&D Systems. For intracellular cytokines and FoxP3 detection, spleen cells from 5 mice from each group were cultured with rhG1 for 4 days. The cells were treated with PMA, ionomycin, and GolgiStop for 4 hours, stained for cell surface markers and intracellular cytokines or Foxp3. Samples were run on a FACS Canto flow cytometer and the results analyzed by FACS Diva software. Statistical analysis of data was done using GraphPad Prism 7 software package. Nonparametric and multiple comparison test were conducted as described. […]

[2] = in mice; cited from earlier work
[3] = in humans; cited from earlier work
spleen cells = test: Cytokines secreted by rhG1-stimulated spleen cell cultures (MagPix); format: cell-based, BALB/c mice; conditions: 7.5 μg/ml rhG1 4 days, stimulated less non-stimulated
Description: as §1

GIA model of RA [4] = test: Histopathology of hind limbs (ankles, hind paws) of diseased mice after vaccination; format: in vivo, BALB/c mice
[5] = system: beDerG-PG70, bePG275cit, beOVA-OR8, beDerG-PG275cit, bePG70, beDerG-GGG; test: Serum anti-LEAPS peptide antibody ELISA (biotinylated peptides on NeutrAvidin plates); format: in vivo, BALB/c mice; conditions: sera of vaccinated mice, day 35
[6] = ankles, 40x magnification, day 35
[7] = hind paws, digit joints, 16x magnification

GQEEKAGVVSTGLIGGGMDMCSAGWLADRSVR-NH2 [DerG-PG275]
Therapeutic effect / protection in the GIA model of RA (GIA model of RA [1]): can provide protection alone
Modulation of Th2, Treg, Th1 cells and cytokines (CD4+ spleen T cells; overall conclusion): does not appear to up modulate Th2 or Treg or Th1 cells or cytokines

MDMCSAGWLADCitSVR-amide (MDMCSAGWLAD[Cit]SVR-NH2; not fully specified) [PG275Cit]
Immunogenicity of epitope [2]: more immunogenic than PG275
Immunogenicity of epitope [3]: more immunogenic than PG275

DGQEEKAGVVSTGLIGGGMDMCSAGWLADCitSVR-amide (DGQEEKAGVVSTGLIGGGMDMCSAGWLAD[Cit]SVR-NH2; not fully specified) [DerG-PG275Cit]
Net secreted IFNγ (spleen cells): induced
Net secreted IL17A (spleen cells): induced
Therapeutic effect / protection in the GIA model of RA (GIA model of RA [1]): therapeutic in the GIA model of RA with high efficacy
Treg cell activation (FoxP3) (CD4+ spleen T cells; CD4+ spleen T cells, rhG1 4 days): appeared to activate Treg cells
Cartilage damage, ankle histopathology (GIA model of RA [4]; [6]): mild
Inflammation, ankle histopathology (GIA model of RA [4]; [6]): moderate
Joints affected, ankle histopathology (GIA model of RA [4]; [6]): the ankle and several digit joints
Joints affected, hind paw histopathology (GIA model of RA [4]; hind paws, 16x magnification): several digit joints
Cartilage damage, hind paw histopathology (GIA model of RA [4]; [7]): mild
Inflammation, hind paw histopathology (GIA model of RA [4]; [7]): moderate
Serum antibodies to vaccine peptides (OD 450 nm) [5]: does not induce antibodies to either DerG or PG275Cit or the conjugate; also recorded: induced antibodies against neither the DerG element nor the PG275Cit element

ATEGRVRVNSAYQDK-amide (ATEGRVRVNSAYQDK-NH2) [PG70, proteoglycan aggrecan (G1) residues 70-84]
Immunogenicity of epitope [2]: more immunogenic than PG70Cit
